Measurements taken from patent publication US8258175B2, “Isoindolin-1-one derivatives” (Cancer Research Technology Limited, priority 2004, dated 2012).
Each block holds one compound with its values, some of them ahead of it. Where no end group is shown, it is not given here.

Key:
MDM2-p53 interaction [1] = molecular target: T1, MDM2-p53 interaction (Homo sapiens, UniProt Q00987); experiment: Preliminary screening, in vitro MDM2-p53 binding assay; settings: preliminary screening studies; read-out: IC50 (inhibition of the MDM2-p53 interaction)
T1 construct: made in house; host or cells: in vitro translation (cell-free)
T1 sequence (Q00987 whole entry): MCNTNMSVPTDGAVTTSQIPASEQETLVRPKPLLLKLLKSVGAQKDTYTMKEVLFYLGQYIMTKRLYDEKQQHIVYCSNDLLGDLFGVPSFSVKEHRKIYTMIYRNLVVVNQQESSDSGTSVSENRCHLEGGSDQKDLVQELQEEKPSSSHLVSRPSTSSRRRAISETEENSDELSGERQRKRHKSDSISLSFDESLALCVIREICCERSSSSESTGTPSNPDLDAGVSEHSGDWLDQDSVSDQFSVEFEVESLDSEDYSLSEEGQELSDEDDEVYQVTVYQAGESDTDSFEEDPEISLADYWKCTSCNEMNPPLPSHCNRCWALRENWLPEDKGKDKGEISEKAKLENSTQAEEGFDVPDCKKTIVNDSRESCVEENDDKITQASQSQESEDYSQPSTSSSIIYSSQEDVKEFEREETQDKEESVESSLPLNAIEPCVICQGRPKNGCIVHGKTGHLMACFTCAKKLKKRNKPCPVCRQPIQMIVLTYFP
Description: Studies of the p53 binding pocket on the MDM2 protein guided the nature of the molecules synthesised. Thus the present invention provides small molecule inhibitors of MDM2-p53 interaction based on an isoindolinone scaffold.

MDM2-p53 interaction [2] = molecular target: T1, MDM2-p53 interaction; experiment: ELISA assay of MDM2-p53 complex formation (MDM2 binding to immobilised IP3 p53-derived peptide); settings: n=3 independent determinations; 5% DMSO; interpolated from three standard concentrations
Description: Streptavidin-coated 96-well plates are used to immobilise a biotin-tagged IP3 p53-derived peptide ([…]). This is a peptide analogue derived from the p53 binding site for MDM2 ([…]). […] Aliquots of MDM2 generated by in vitro translation are pre-incubated for 20 minutes at room temperature (i.e. 20-25° C.) with test compounds and controls, before transfer into the IP3-coated 96-well plates. Following a further incubation period of 90 minutes at 4° C., the plates are washed to remove unbound MDM2 and the residual bound MDM2 is detected using a primary monoclonal antibody (MDM2 Ab-1, clone IF2, Oncogene Research Products) and HRP-conjugated secondary antibody (Goat anti-mouse, Dako PO447). The HRP (horseradish peroxidase) is measured by a chemiluminescence reaction using standard reagents (Amersham Pharmacia™ RPN 2106) and an automatic injection 96-well plate illuminometer (EG & G Berthold Microplate LB 96V).
Compound NU8231 is currently included as a standard “lead compound” positive control. […] The AP peptide is included as a positive control for biological evaluation of the isoindolinones in the cell free binding assays.
All compounds are dissolved in DMSO and tested at three standard concentrations (initially 20 μM, 100 μM and 500 μM) in the presence of a fixed final concentration of 5% DMSO. The percentage inhibition of complex formation is expressed relative to a DMSO only control and an IC50, defined as the concentration required for 50% inhibition of MDM2-p53 complex formation, determined by interpolation.

[3] = system: SJSA cells (MDM2 amplified); experiment: Western blot of SJSA cells treated with compound; format: cell-based; settings: SJSA cells, 5, 10 and 20 μM, lysed at 6 hours
Description: Osteosarcoma cell line SJSA-1 was plated out in 55 mm dishes at a density of 2.5×10^5 cells in 3 mL of RPMI 1640 medium (Sigma) supplemented with 10% foetal bovine serum (FBS, Gibco), 1% (v/v) HEPES (Gibco), 1% (v/v) sodium pyruvate (Gibco) and 1.25 g/500 ml glucose (Sigma) for 48 hours in a 37° C. humidified incubator (Sanyo, MCO 20AIC) at a CO2 concentration of 5%.
The dishes were treated with NU8231 at a final concentration of 5, 10, and 20 μM (at 1% DMSO) together with a 1% DMSO and an untreated control sample for 6 hours. The medium was then aspirated and the dishes were washed with 3 mL of cold PBS. The cells were then lysed in 40 μL of Sodium Dodecyl Sulphate (SDS, Sigma) lysis buffer, boiled at 100° C. for 10 minutes before sonication for 3×5 seconds at 20 microns (Soniprep 150, MSE).
The protein concentration for each of the samples was then determined using BCA Protein Assay Kit (Pierce), and 1:1 loading buffer consisting of β-mercaptoethanol (Sigma) and 0.5% bromophonol-blue (Sigma) were added to 40 μg of protein and made up to a final volume of 30 μL and boiled for 5 minutes at 100° C.
The samples were then loaded onto a precast 4-20% gradient polyacrylamide Tris-Glycine gels (15 wells, 1.5 mm thickness, Invitrogen Life Technologies), along with a pre-stained marker protein (SeeBlue, Invitrogen). The Gels were processed in Novex XCell (Invitrogen) at 180V and blotted onto a High Bond C membrane (Amersham Life Science) overnight at 30V.
The membrane was then blocked for one hour at room temperature in TBS-Tween containing 5% non-fat milk (TBST-M) followed by incubation with primary antibodies for MDM2 (MDM2-Ab1, 1:500, Oncogene), p53 (p53-D07, 1:1000, Novacastra), p21 (p21 Ab1, 1:100, Oncogene) and Actin (Actin AC40, 1:1000, Sigma) in PBST-M for 1 hour.
The membrane was then washed three times in TBST (15 minutes per wash) and then incubated for an additional 1 hour with a anti mouse or a rabbit horseradish peroxidase (HRP) secondary antibody (Dako, 1:1000) in PBST-M followed by a final wash consisting of six washes with TBST at 5 minutes per wash. […]

MDM2 = MDM2 (Homo sapiens, UniProt Q00987); settings: Stoll et al 2001; cited from earlier work
MDM2, sequence (Q00987 whole entry): as above

Compound: CCCNC1(c2ccccc2)c2ccccc2C(=O)N1Cc1ccccc1 (stereo not drawn) [NU8006, 2-benzyl-3-phenyl-3-(propylamino)isoindolin-1-one]
IC50 (MDM2-p53 interaction [1]): ~200 µM

Compound: CCCN1C(=O)c2ccccc2C1(OCc1cc(OC)c(O)c(OC)c1)c1ccc(Cl)cc1 (stereo not drawn) [NU8231, 3-(4-Chlorophenyl)-3-(4-hydroxy-3,5-dimethoxybenzyloxy)-2-propyl-2,3-dihydroisoindolin-1-one]
MDM2 level (Western blot) [3]: dose dependent increase | p21 level (Western blot) [3]: dose dependent increase | p53 levels (Western blot) [3]: No change

Compound: IP3: biotin-tagged p53-derived peptide (MPRFMDYWEGLN), analogue derived from the p53 binding site for MDM2 (also: biotin tag, place not given here)
affinity for MDM2 relative to the native p53 peptide (MDM2): higher affinity for MDM2 than the native peptide

More lines, now with the values ahead:

IC50 (MDM2-p53 interaction [1]): ~200 µM
Compound: CCCOC1(c2ccccc2)c2ccccc2C(=O)N1Cc1ccccc1 (stereo not drawn) [NU8001, 2-benzyl-3-phenyl-3-propoxy isoindolin-1-one]

IC50 (MDM2-p53 interaction [1]): ~200 µM
Compound: CCCOC1(c2ccccc2)c2ccccc2C(=O)N1CCC (stereo not drawn) [NU8009, 2-propyl-3-phenyl-3-propoxy isoindolinin-1-one]

IC50 (MDM2-p53 interaction [2]): > 500 µM | melting point: 118.7 to 119.9 °C
Compound: CCCN1C(=O)c2ccccc2C1(OCc1ccc(C(C)(C)C)cc1)c1ccccc1 (stereo not drawn) [NU8223, 3-(4-tert-Butylbenzyloxy)-3-phenyl-2-propyl-2,3-dihydroisoindolin-1-one]
